Assay results reported in patent US10532054B2, “Compounds for the prevention and treatment of cardiovascular diseases” (Resverlogix Corp., priority 2007, dated 2020).

Experiments:
ApoA-I mRNA = assay: Quantification of ApoA-I mRNA in HepG2 cells; type: cell-based; design: key: Active: An active compound is one that causes a >15% increase in ApoA-I mRNA at a concentration less than or equal to 100 uM; conditions: concentration less than or equal to 100 uM
Procedure: In this example, ApoA-I mRNA in tissue culture cells was quantitated to measure the transcriptional up-regulation of ApoA-I when treated with a compound of the invention.
HepG2 cells (˜2×10^5 per well) were placed in a 24-well plate in ˜400 μL MEM, supplemented with 0.5% (v/v) FBS, 24 h before addition of the compound of interest. At time of harvesting, the spent media was removed from the HepG2 cells and immediately placed on ice (for immediate use) or at −80° C. (for future use) in ApoA-I and albumin ELISAs. The cells remaining in the plate wells were rinsed in 200 μL PBS. PBS was carefully removed to avoid removing any loosely attached cells.
Once the PBS was removed, 85 μL cell lysis solution was added the cells in each well and incubated for 5-10 min at room temperature, to allow for complete cell lysis and detachment. mRNA was then prepared using the “mRNA Catcher PLUS plate” from Invitrogen, according to the protocol supplied. […]
The eluted mRNA isolated was then used in a one-step real-time […] reaction, using components of the Ultra Sense Kit together with Applied Biosystems primer-probe mixes. Real-time PCR data was analyzed, using the Ct values, to determine the fold induction of each unknown sample, relative to the control (that is, relative to the control for each independent DMSO concentration). […]

[1] = subjects with low HDL-C; cited from earlier work
[2] = following oral administration; cited from earlier work

Compound | melting point [°C] | also measured
4-(1-Oxo-1,2-dihydroisoquinolin-3)phenyl 2-amino-5-guanidinopentanoate trihydrochloride [Example 4] | – | Effect on ApoA-I mRNA levels (ApoA-I mRNA): Active
COc1cc(OC)c2c(=O)nc(-c3cc(C)c(O)c(C)c3)n(C)c2c1 [Example 71, 2-(4-hydroxy-3,5-dimethylphenyl)-5,7-dimethoxy-1-methylquinazolin-4(1H)-one] | 188.5 to 189.1 | –
Cc1cc(-c2cc3nc(OC(C)C)cc(OC(C)C)c3c(=O)[nH]2)cc(C)c1O [Example 74, 7-(4-hydroxy-3,5-dimethylphenyl)-2,4-diisopropoxy-1,6-naphthyridin-5(6H)-one] | 206 to 208 | –
COc1cc(OC)c2c(=O)[nH]c(-c3ccc(N(CCO)CCO)cc3)nc2n1 [Example 78, 2-(4-(bis(2-hydroxyethyl)amino)phenyl)-5,7-dimethoxy-pyrido[2,3-d]pyrimidin-4(3H)one] | 277 to 279 | –
COc1cc(OC)c2c(=O)[nH]c(-c3ccc(OCC(=O)O)c(OC)c3)nc2c1 [Example 103, 2-(4-(5,7-dimethoxy-4-oxo-3,4-dihydroquinazolin-2-yl)2-methoxyphenoxy)acetic acid] | 275 to 277 | –
Cc1ccc(C)c(OCCCC(C)(C)C(=O)O)c1 [gemfibrozil] | – | increase in the HDL-C level [1]: 6%; reduction of the CHD risk [1]: 22%
O=c1c(O)c(-c2ccc(O)c(O)c2)oc2cc(O)cc(O)c12 [quercetin] | – | intestinal absorption [2]: less than 1%

The next lines start with results.

melting point [°C] | Compound | also measured
255 to 256 | COc1cc(OC)c2c(=O)[nH]c(-c3cc(C)c(OCCO)c(C)c3)nc2n1 [Example 70, 2-(4-(2-hydroxyethoxy)-3,5-dimethylphenyl)-5,7-dimethoxypyrido[2,3-d]pyrimidin-4(3H)-one] | –
> 300 | CC(=O)Nc1ccc2nc(-c3cc(C)c(OCCO)c(C)c3)[nH]c(=O)c2c1 [Example 73, N-(2-(4-(2-hydroxyethoxy)-3,5-dimethylphenyl)-4-oxo-3,4-dihydroquinazolin-6-yl)acetamide] | –
249 to 250.3 | COc1cc(OC)c2c(=O)[nH]c(-c3ccc(O)c(CCO)c3)nc2c1 [Example 75, 2-(4-hydroxy-3-(2-hydroxyethyl)phenyl)-5,7-dimethoxyquinazolin-4(3H)-one] | –
169 to 170 | COc1cc(OC)c2cnc(-c3cc(C)c(OCCO)c(C)c3)nc2c1 [Example 76, 2-(4-(5,7-dimethoxyquinazolin-2-yl)-2,6-dimethylphenoxy)ethanol] | –
259.6 to 261.2 | Cc1cc(C)c2c(=O)[nH]c(-c3cc(C)c(OCCO)c(C)c3)nc2c1 [Example 77, 2-(4-(2-hydroxyethoxy)-3,5-dimethylphenyl)-5,7-dimethylquinazolin-4(3H)-one] | –
201 to 202 | COCCOc1c(C)cc(-c2nc3cc(OC)cc(OC)c3c(=O)[nH]2)cc1C [Example 79, 5,7-dimethoxy-2-(4-(2-methoxyethoxy)-3,5-dimethylphenyl)quinazolin-4(3H)-one] | –
260.8 to 262.6 | Cc1cc(-c2nc3cc(Cl)cc(Cl)c3c(=O)[nH]2)cc(C)c1OCCO [Example 80, 5,7-dichloro-2-(4-(2-hydroxyethoxy)-3,5-dimethylphenyl)quinazolin-4(3H)-one] | –
237 to 239.1 | COc1cc2nc(-c3cc(C)c(O)c(C)c3)[nH]c(=O)c2c(OC)c1CN1CCOCC1 [Example 81, 2-(4-hydroxy-3,5-dimethylphenyl)-5,7-dimethoxy-6-(morpholinomethyl)quinazolin-4(3H)-one] | –
291.3 to 293 | COc1cc(O)c2c(=O)[nH]c(-c3cc(C)c(O)c(C)c3)nc2c1 [Example 104, 5-hydroxy-2-(4-hydroxy-3,5-dimethylphenyl)-7-methoxyquinazolin-4(3H)-one] | –
